Test system: Snrpn promoter region and adjacent Dazl locus
Experiment: Bisulfite sequencing of the Dazl-Snrpn region in mESCs
Type: cell-based, mouse
Conditions: with target gRNAs
Description: FIGS. 1A-IF depict activation of the Daz1-Snrpn-GFP reporter by dCas9-Tet1. […] FIG. 1B is a schematic representation of targeting the Snrpn promoter region by dCas9-Tet1 with specific gRNAs to erase methylation and activate GFP expression. […] Percentage of GFP positive cells were calculated by flow cytometric analysis of these cells 3-day post infection, and shown as the mean percentages of GFP positive cells±SD of two biological replicates. Note that the percentages of GFP-positive cells are expressed as the fraction of infected Cherry-positive cells. […] Scale bar: 250 um. Right: provides percentages of GFP positive colonies were quantified, and shown as the mean percentages of GFP positive cells±SD of two biological replicates. […] FIG. 1F provides methylation levels of individual CpGs in the Snrpn promoter region and the adjacent Dazl locus. Shown is the mean percentage±SD of two biological replicates.
Demethylation of specific CpGs: To test whether defined sequences could be demethylated, we introduced the dCas9-Tet1 construct in combination with gRNAs to target the Snrpn-GFP reporter inserted into the Dazl promoter (FIG. 1B and FIG. 9A). […] To assess the activation efficiency by dCas9-Tet1 with target gRNAs, we analyzed the cells infected by both viruses using FACS. […] We further analyzed the GFP-positive and -negative populations within infected Cherry-positive cells. […]

Substance: dCas9-Tet1: catalytically inactive Cas9 (dCas9) fused through NLS to the Tet1 catalytic domain, SEQ ID NO: 159; lentivirally expressed with gRNAs
- methylation status of Snrpn promoter region and adjacent Dazl locus: robust demethylation only in the Snrpn promoter region but not the adjacent Dad locus

— US12060588B2, “Methods of editing DNA methylation” (Whitehead Institute for Biomedical Research, priority 2016, dated 2024)
